Measurements taken from article PMC7796460, “Relation of Metal-Binding Property and Selective Toxicity of 8-Hydroxyquinoline Derived Mannich Bases Targeting Multidrug Resistant Cancer Cells” (Cancers, 2021).
Read-outs that look alike come from different tables or passages of the source.

Tests used:
MES-SA/Dx5 cells [1] = test: MTT viability assay, MES-SA/Dx5; assay type: cell-based, human; conditions: for SR: Table S1, IC50 Pgp negative divided by Pgp positive cells; for SR_TQ: Table S1, presence of 1 µM TQ
Source text: (§1) MDCK II canine kidney cells, A431 epidermoid carcinoma cells, the human uterine sarcoma cell lines MES-SA and the doxorubicin selected MES-SA-Dx5 were obtained from ATCC (MDCK II: No. CRL-2936™, A431: No. CRL-1555™, MES-SA: No. CRL-1976™, MES-SA/Dx5: No. CRL-1977™). ABCB1 was expressed in A431 and MES-SA cells using lentiviral transduction. The human cervix carcinoma cell line KB-3-1 and the vinblastine selected KB-v1were kind gifts from Dr. Michael M. Gottesman, National Institutes of Health. The phenotype of the resistant cells was verified using cytotoxicity assays. MDCK-B1 and MDCK-MM were established by the Sleeping Beauty transposon-based gene delivery system. OVCAR-8 and NCI-ADRres cells (obtained from the Division of Cancer Treatment and Diagnosis (DCTD) Tumor Repository (National Cancer Institute, Frederick, MD, USA)) were cultivated in RPMI-1640 (Sigma Aldrich, Budapest, Hungary), and other cell lines were cultivated in Dulbecco’s Modified Eagle Medium (DMEM, Sigma Aldrich, Budapest, Hungary), supplemented with 10% fetal bovine serum, 5 mM glutamine, and 50 unit/mL penicillin and streptomycin (Life Technologies, Carlsbad, CA, USA). All cell lines were cultivated at 37 °C, 5% CO2.
(§2) MTT viability assays were performed as described earlier with minor modifications. Briefly, cells were seeded into 96-well tissue culture plates (Sarstedt, Newton, NC, USA/Orange, Braine-l’Alleud, Belgium) at a density of 5000 cells/well and allowed to attach overnight. Test compounds were added to achieve the required final concentration in a final volume of 100 µL per well. After an incubation period of 72 h, the supernatant was removed and fresh medium containing the MTT reagent (0.083 mg/mL) was added. Incubation with MTT at 37 °C was terminated after 1 h by removing the supernatant and lysing the cells with 100 µL DMSO per well. Viability of the cells was measured spectrophotometrically based on the absorbance values at 540 nm using either a Perkin Elmer Victor X3 or an EnSpire microplate reader. Data were background corrected by subtraction of the signal obtained from unstained cell lysates and normalized to untreated cells. Curves were fitted by Prism software (GraphPad Software Inc., San Diego, CA, USA) using the sigmoidal dose-response model (comparing variable and fixed slopes). […] Significance was calculated using unpaired t-tests; results are given as *: p ≤ 0.05, **: p ≤ 0.01, ***: p ≤ 0.001, ****: p ≤ 0.0001.

MES-SA cells [2] = test: MTT viability assay, MES-SA; assay type: cell-based, human
Source text: as §1, §2

[3] = pKa by UV-visible spectrophotometric titrations; assay type: physicochemical; conditions: 0.2 M KCl (ionic strength), T = 25 °C, I = 0.2 M (KCl)
MES-SA/Dx5 cells [4] = test: ROS determination with DCFDA, MES-SA/Dx5; assay type: cell-based, human; conditions: 2 h
Method: (§3) Measurements were performed as described earlier. Briefly, cells were harvested, washed with PBS, and incubated with 10 µM DCFDA in a water bath shaker at 37 °C for 30 min in a density of 3 × 10^6 cells/mL. After washing with PBS, cells were seeded to 96-well plates in PBS in a density of 2 × 10^4 cells/well. Following the measurement of the basal fluorescence, test compounds were added in different concentrations and the fluorescence of the samples was followed at time intervals of 10 min. DCFDA solution in buffer was used as a cell free control to test for interaction of the test compounds with DCFDA. Data were analyzed as fold change of fluorescence compared to basal levels and untreated cells. Significance was calculated using unpaired t-tests; results are given as *: p ≤ 0.05, **: p ≤ 0.01, ***: p ≤ 0.001, ****: p ≤ 0.0001.
(§4) Table S3: Characterization of intracellular ROS production with the DCFDA assay for P -gp negative MES-SA and P-gp positive MES-SA/Dx5 cells. Fold changes in fluorescence are shown after a 2 h with the investigated 8 -hydroxyquinoline ligands. Data S-refer to Figure 7 and allow […]
(§5) concentration range from 6.25µ M to 50µ M. Fold change of fluorescence obtained in the presence of 5 mM NAC is given in brackets.

MES-SA cells [5] = test: ROS determination with DCFDA, MES-SA; assay type: cell-based, human; conditions: 2 h
Method: as §3, §4, §5

[6] = group named in the cell (NmorpholiniumH+, NpiperidiniumH+, NbenzylamineH2+), read-out: pKa (additional)
[7] = Homo sapiens, MES-SA/Dx5, Table 2, value outside brackets, read-out: MES-SA/Dx5 (toxicity, Table 2)
[8] = Table 2, value outside brackets
[9] = Homo sapiens, MES-SA, Table 2, value outside brackets, read-out: MES-SA (toxicity, Table 2)
[10] = Table S1, calculated as ligand equivalents, absence of TQ, read-out: IC50 Dx5
[11] = Table S1, calculated as ligand equivalents, presence of 1 µM TQ, read-out: IC50 Dx5_TQ
[12] = Table S1, calculated as ligand equivalents, presence of 1 µM TQ, read-out: IC50 MES-SA_TQ
[13] = Table S1, ligands and in situ preformed complexes, calculated as ligand equivalents, absence of TQ, read-out: IC50 MES-SA

## CC(=O)N[C@@H](CS)C(=O)O [NAC, N-acetyl cysteine, reference compound]
MES-SA/Dx5 cells [1]; 5 mM, MES-SA/Dx5
  Effect on viability of the cells, alone: did not influence the viability
MES-SA cells [2]; 5 mM, MES-SA
  Effect on viability of the cells, alone: did not influence the viability

## Oc1c(CNCc2ccccc2F)ccc2ccccc12 [NC-4, 2-((2-fluorobenzylamino)methyl)naphthalen-1-ol]
[3]; [6]
  pKa: 9.72 ± 0.02
[3]; read-out: pKa (OH)
  pKa: 5.5 ± 0.02
MES-SA/Dx5 cells [1]; [7]
  IC50: 31100 ± 2170 nM
MES-SA/Dx5 cells [1]; [8]
  SR MES-SA/Dx5 (Table 2): 1.44
MES-SA cells [2]; [9]
  IC50: 44700 ± 4520 nM

## [Cu+2].[O-]c1c(CNCc2ccccc2F)cc(Cl)c2cccnc12.[O-]c1c(CNCc2ccccc2F)cc(Cl)c2cccnc12 [1/2 [Cu(Q-4)2]]
MES-SA/Dx5 cells [1]; absence of TQ
  SR: 5.03
MES-SA/Dx5 cells [1]; [10]
  IC50: 290 ± 39 nM
MES-SA/Dx5 cells [1]; [11]
  IC50: 1220 ± 25 nM
MES-SA/Dx5 cells [1]
  SR_TQ: 1.11
MES-SA cells [2]; [12]
  IC50: 1360 ± 260 nM
MES-SA cells [2]; [13]
  IC50: 1460 ± 160 nM

## [Fe+3].[O-]c1c(CN2CCOCC2)ccc2cccnc12.[O-]c1c(CN2CCOCC2)ccc2cccnc12.[O-]c1c(CN2CCOCC2)ccc2cccnc12 [1/3 [Fe(Q-2)3]]
MES-SA/Dx5 cells [1]; absence of TQ
  SR: 1.24
MES-SA/Dx5 cells [1]; [10]
  IC50: 3130 ± 840 nM
MES-SA/Dx5 cells [1]; [11]
  IC50: 4230 ± 520 nM
MES-SA/Dx5 cells [1]
  SR_TQ: 1.03
MES-SA cells [2]; [12]
  IC50: 4350 ± 580 nM
MES-SA cells [2]; [13]
  IC50: 3870 ± 880 nM

## [Fe+3].[O-]c1cccc2cccnc12.[O-]c1cccc2cccnc12.[O-]c1cccc2cccnc12 [1/3 [Fe(Q-1)3]]
MES-SA/Dx5 cells [1]; absence of TQ
  SR: 1.13
MES-SA/Dx5 cells [1]; [10]
  IC50: 2920 ± 800 nM
MES-SA/Dx5 cells [1]; [11]
  IC50: 2960 ± 640 nM
MES-SA/Dx5 cells [1]
  SR_TQ: 1.04
MES-SA cells [2]; [12]
  IC50: 3070 ± 360 nM
MES-SA cells [2]; [13]
  IC50: 3310 ± 520 nM

## [Cu+2].[O-]c1c(CN2CCOCC2)ccc2cccnc12.[O-]c1c(CN2CCOCC2)ccc2cccnc12 [1/2 [Cu(Q-2)2]]
MES-SA/Dx5 cells [1]; absence of TQ
  SR: 1.29
MES-SA/Dx5 cells [1]; [10]
  IC50: 1760 ± 560 nM
MES-SA/Dx5 cells [1]; [11]
  IC50: 1920 ± 450 nM
MES-SA/Dx5 cells [1]
  SR_TQ: 1.05
MES-SA cells [2]; [12]
  IC50: 2020 ± 650 nM
MES-SA cells [2]; [13]
  IC50: 2270 ± 670 nM

## Oc1c(CN2CCOCC2)cc(Cl)c2cccnc12 [Compound 5-Cl-Q-2]
MES-SA/Dx5 cells [4]; MES-SA/Dx5, 6.25 µM
  Fold change in fluorescence (DCFDA): 2.594± 0.87
MES-SA/Dx5 cells [4]; MES-SA/Dx5, 6.25 µM, presence of 5 mM NAC (brackets)
  Fold change in fluorescence (DCFDA): 1.246± 0.47
MES-SA/Dx5 cells [4]; MES-SA/Dx5, 12.5 µM
  Fold change in fluorescence (DCFDA): 3.214± 0.86
MES-SA/Dx5 cells [4]; MES-SA/Dx5, 12.5 µM, presence of 5 mM NAC (brackets)
  Fold change in fluorescence (DCFDA): 1.651± 0.73
MES-SA/Dx5 cells [4]; MES-SA/Dx5, 25 µM, presence of 5 mM NAC (brackets)
  Fold change in fluorescence (DCFDA): 1.265± 0.27
MES-SA/Dx5 cells [4]; MES-SA/Dx5, 50 µM
  Fold change in fluorescence (DCFDA): 4.697± 3.24
MES-SA/Dx5 cells [4]; MES-SA/Dx5, 50 µM, presence of 5 mM NAC (brackets)
  Fold change in fluorescence (DCFDA): 1.462± 0.39
[3]; [6]
  pKa: 5.83 ± 0.02
[3]; read-out: pKa (NquinoliniumH+)
  pKa: < 2
[3]; read-out: pKa (OH)
  pKa: 9.68 ± 0.03
MES-SA/Dx5 cells [1]; [7]
  IC50: 640 ± 30 nM
MES-SA/Dx5 cells [1]; Table 2, value in brackets (Tariquidar as in Table 1)
  SR MES-SA/Dx5 (Table 2): 1.39
MES-SA/Dx5 cells [1]; [8]
  SR MES-SA/Dx5 (Table 2): 2.19
MES-SA cells [2]; [9]
  IC50: 1400 ± 240 nM
MES-SA cells [5]; 6.25 µM
  Fold change in fluorescence (DCFDA): 1.896± 0.32
MES-SA cells [5]; 6.25 µM, presence of 5 mM NAC (brackets)
  Fold change in fluorescence (DCFDA): 1.600± 0.55
MES-SA cells [5]; 12.5 µM
  Fold change in fluorescence (DCFDA): 2.226± 0.39
MES-SA cells [5]; 12.5 µM, presence of 5 mM NAC (brackets)
  Fold change in fluorescence (DCFDA): 1.263± 0.62
MES-SA cells [5]; 25 µM
  Fold change in fluorescence (DCFDA): 2.086± 0.66
MES-SA cells [5]; 25 µM, presence of 5 mM NAC (brackets)
  Fold change in fluorescence (DCFDA): 1.309± 0.51
MES-SA cells [5]; 50 µM
  Fold change in fluorescence (DCFDA): 2.609± 0.77
MES-SA cells [5]; 50 µM, presence of 5 mM NAC (brackets)
  Fold change in fluorescence (DCFDA): 1.178± 0.40
